Experimental data: PubChem BioAssay AID602350 (Broad Institute, 2012)

Target: Protein disulfide-isomerase (Homo sapiens) (UniProt P07237)
Assay: PDI inhibitors, insulin aggregation turbidity, dose response, biochemical, absorbance, cherry-picked samples (AID 602350);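 also: potency is for inhibitors that reduce insulin aggregation absorbance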
Details: recombinant PDI insulin aggregation, absorbance 650 nm, 90 min

Protein disulfide-isomerase (Homo sapiens), sequence (P07237 whole entry, looked up): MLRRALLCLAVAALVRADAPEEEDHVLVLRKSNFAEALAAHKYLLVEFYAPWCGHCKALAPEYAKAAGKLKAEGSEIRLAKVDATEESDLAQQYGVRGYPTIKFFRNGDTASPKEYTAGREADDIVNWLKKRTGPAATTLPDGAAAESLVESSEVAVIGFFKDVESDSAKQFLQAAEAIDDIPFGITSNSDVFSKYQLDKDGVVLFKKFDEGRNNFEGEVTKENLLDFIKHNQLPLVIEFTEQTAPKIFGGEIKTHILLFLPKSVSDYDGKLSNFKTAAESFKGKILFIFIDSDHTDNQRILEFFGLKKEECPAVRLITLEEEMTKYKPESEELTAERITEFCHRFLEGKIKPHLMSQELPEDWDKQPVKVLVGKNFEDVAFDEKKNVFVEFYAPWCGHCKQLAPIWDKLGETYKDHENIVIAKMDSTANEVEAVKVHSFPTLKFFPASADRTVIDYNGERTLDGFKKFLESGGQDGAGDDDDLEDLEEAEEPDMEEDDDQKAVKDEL

- AC50: 19.5 µM
SMILES: Cc1noc(C)c1S(=O)(=O)Nc1ccc2c(c1)CC(=O)N([C@@H](C)CO)C[C@@H](C)[C@H](CN(C)S(=O)(=O)c1ccc(F)cc1)O2
